Assay results from patent US7795242B2, “Methods and compositions for immunomodulation” (The Brigham and Women's Hospital, Inc., priority 2003, dated 2010).

Assays:
[1] = target: T1, CD1d (Homo sapiens, UniProt P15813); settings: Im et al., J Biol Chem., 279:299-310, 2004; cited from earlier work
[2] = test system: IL1AP T cells; test: Proliferative response of IL1AP T cells stimulated with antigen and dendritic cells ([3H]-thymidine incorporation); format: cell-based, human; settings: for stimulation (proliferation) of IL1AP T cells: DC as APC, FIG. 1A, 2B, 6E, 7A
Procedure: The antigens provided herein were identified with T-cell activation assays performed using purified fractions in order to determine their relative ability to activate T-cells. These assays were carried out essentially as described in U.S. Pat. Nos. 5,679,347; 5,853,737; and 6,238,676, and in Rosat et al. J. Immunol. 162:366-371, 1999. Other procedures are well-known in the art.
To generate CD1-restricted T cells that recognize novel antigens, we stimulated human peripheral blood lymphocytes using a method that reduces the outgrowth of MHC-restricted T cells and favors the detection of CD1-restricted T cells. This involves the repeated stimulation of lymphocytes with lipid antigens with monocyte-derived dendritic cells (DC) from donors that differ in their MHC protein expression, so that T cells responding to DC with a given MHC class I or II molecule will not be repeatedly stimulated and therefore […] in T cell lines produced after many rounds of stimulation. DCs were prepared from the peripheral blood of healthy donors by centrifugation over Ficoll-Hypaque, adherence of the mononuclear cells to plastic tissue culture flasks, culture of adherent cells with 300 U/ml GM-CSF and 200 U/ml IL-4 for 3 days, followed by irradiation (3300 R).
DC and T cells were cultured at a 1:5 ratio in the presence of 1 μg/ml LKKRRL mixture to yield T cell lines. T cells lines were used to generate clones by culturing T cells at approximately 1 cell per well with phytohemagglutinin, peripheral blood mononuclear cells, transformed B cell lines and 2 nM IL-2. This protocol yielded a polyclonal T cell line IL1AP and several clones derived there from, which are named IL1AP.15, IL1AP.31.
To assay the proliferative responses of IL1AP T cells, 5*10^4 Polyclonal IL1AP T cells were stimulated with 3*10^4 DC and LKKRRL mixture (FIG. 1A). […] C1R cells transfected with the vector pSRα-NEO, containing the cDNAs encoding human CD1a, CD1b, CD1c, CD1d, or no insert (C1R mock) were used as alternative APC for the stimulation of polyclonal T cells with LKKRRL mixture (FIG. 1C). […]

[3] = target: T1, CD1d; test: Competition with αGalCer-mediated NK T cell activation on plate-bound recombinant CD1d; format: cell-based; settings: FIG. 8; for block of αGalCer-mediated NK T activation: compound added in excess to plate-bound recombinant CD1d
Excerpt: Next, to determine whether PPBF could compete with αGalCer-mediated NK T cell responses, we used an in vitro assay of PPBF added to recombinant CD1d proteins bound to a plate.

[4] = test system: J.RT3.ABd cells; test: IL-2 release by J.RT3 cells transfected with IL1AP TCR α and β chains (J.RT3.ABd); format: cell-based; settings: FIG. 11A
Procedure: We transfected the full-length TCR α and β chains from IL1AP cells into J.RT3 cells to generate a TCR-expressing reporter cell line (J.RT3.ABd). […] To determine whether PPBF could activate through intact CD3 complexes that were reconstituted by transfection of a TCR with irrelevant antigen specificity, J.RT3-T3.5 cells transfected with the TCR α and β chains of the CD8-2 cell line (J.RT3-CD8-2) that recognizes the mycobacterial lipopeptides DDM were tested for IL-2 release upon stimulation with DDM or PPBF.

[5] = test system: T cell line IL1AP; test: IL-2 release by PPBF-reactive T cell line IL1AP with DC as APC (HT-2 bioassay); format: cell-based, human; settings: IL-2 measured 24 h after stimulation; FIG. 7A
Procedure: Because αGalCer was previously known to function as a potent activator of CD1d-restricted T cell clones known as NK T cells, we sought to determine whether PPBF-reactive T cells and αGalCer-reactive T cells cross react. The PPBF-reactive T cell line IL1AP and the αGalCer-reactive T cell clone J3N.5 were each stimulated with αGalCer and PPBF using DC as APC. IL-2 release was measured 24 h after stimulation. The IL-2 concentration in 50 μl of culture supernatants, harvested 24 hours after T cell stimulation, was determined by adding 10^4 IL-2 starved HT-2 cells in […] medium, and a 6 h pulse after a 24 h incubation.

[6] = test system: polyclonal lymphocytes; test: Proliferative response of polyclonal lymphocytes and T cell clones; format: cell-based, human; settings: data not shown
Procedure: To determine whether PPBF non-selectively activated polyclonal lymphocyte populations or selectively activated antigen-specific clones present at low precursor frequency in vivo, polyclonal lymphocytes were tested for their proliferative response to PPBF.

O=S(=O)(O)c1ccc2cc(Nc3ccccc3)ccc2c1 [2,6-anilonapthalene sulfonic acid]
binding to CD1d [1]: has been shown to bind CD1d

3-methyl-PPBF
capacity to stimulate IL1AP T cell proliferation relative to PPBF ([2]; FIG. 6E): stimulated T cells more potently than PPBF
degree and titer of inhibition of αGalCer-mediated NK T activation compared with 2,6-ANS [3]: comparable to that of 2,6-anilonapthalene sulfonic acid
block of αGalCer-mediated NK T activation [3]: substantially block αGalCer-mediated NK T activation in a dose-dependent manner

Cc1c(C)c(S(=O)(=O)Oc2ccccc2)c(C)c2c1OC(C)(C)C2 [PPBF, phenyl-2,2,4,6,7-pentamethyldihydrobenzofuran-5-sulfonyl]
stimulation (proliferation) of IL1AP T cells [2]: Only the T cell line IL1AP and clones derived therefrom were activated by PPBF
stimulation (proliferation) of IL1AP T cells ([2]; listed as Synthetic PPBF): potently stimulate
IL-2 production by J.RT3.ABd cells upon stimulation [4]: conferred the ability to produce IL-2 upon stimulation with PPBF
degree and titer of inhibition of αGalCer-mediated NK T activation compared with 2,6-ANS [3]: comparable to that of 2,6-anilonapthalene sulfonic acid
block of αGalCer-mediated NK T activation [3]: substantially block αGalCer-mediated NK T activation in a dose-dependent manner

CCCCCCCCCCCCCCCCCCCCCCCCCC(=O)N[C@@H](CO[C@H]1O[C@H](CO)[C@H](O)[C@H](O)[C@H]1O)[C@H](O)[C@H](O)CCCCCCCCCCCCCC [αGalCer, α-galactosyl ceramide]
recognition by IL1AP T cells (IL-2 release) [5]: did not recognize αGalCer

phytohemagglutinin [reference compound]
activation of polyclonal T cells and T cell clones (proliferative response) [6]: activated by the mitogen phytohemagglutinin
